Laboratory results reported in US20090271892A1, “LYSOPHOSPHATIDIC ACID ACYLTRANSFERASE GENES AND USES THEREOF” (priority 2006, published 2009).

Target: T1, Litchi sinensis LPAAT (LsLPAAT, pEW108), mutant of SEQ ID No 2 in the last C-terminal amino acids, SEQ ID No 1 (Litchi chinensis, UniProt A0A346D9Z1)
T1 construct: araBAD promoter, E. coli JC201 microsomes
Experiment: LPAAT assay, kinetic parameters with C18:1-CoA, E. coli JC201 microsomes
Assay type: biochemical
Conditions: C18:1-CoA 0-50 μM, 10 min, 30° C., pH7.5, N = 4
Excerpt: FIG. 1: Kinetics of phosphatidic acid synthesis using ^14C-C18:1-CoA on ^3H-LPA as substrates and Brassica napus (SEQ ID No 5) and Litchi microsomal (SEQ ID NO 1) LPAATs as enzymes. Duplicate measurements for one experiment are shown.
The inventors have identified one putative Lysophosphatidic Acid-Acyl Transferase from Lychee (SEQ ID No 2). They also have obtained a mutated protein derived from this protein, which is depicted as SEQ ID No 1.
Plasmids pEW108 and 117 comprising genes coding for SEQ ID No 1 and SEQ ID No 2 respectively under the control of the araBAD promoter (Guzman, L-M. et al. (1995) J Bacteriology 177: 4121-4130) were prepared and used to transform and complement an E. coli strain. The araBAD promoter is induced by arabinose, repressed by glucose and is used in the art to express polynucleotides in a controlled manner.
The following experiments were performed with the Escherichia coli JC201 mutant strain, which is temperature conditional in endogenous LPAAT activity and able to grow at 30° C. but not at 44° C. (genotype plsC, described in Coleman, 1990 J. Biol. Chem., 265 (28), 17215-21.). These bacteria were kept at −80° C. as 1 ml glycerol stocks. […] Optical density was measured at 600 nm and each flask was then cultivated for 6 hours at 30 and 44° C. respectively in order to check by optical density measurement that bacterial growth occurs at 30° C. but not at 44° C. […]

T1 sequence (A0A346D9Z1 entry or part of it, change not shown): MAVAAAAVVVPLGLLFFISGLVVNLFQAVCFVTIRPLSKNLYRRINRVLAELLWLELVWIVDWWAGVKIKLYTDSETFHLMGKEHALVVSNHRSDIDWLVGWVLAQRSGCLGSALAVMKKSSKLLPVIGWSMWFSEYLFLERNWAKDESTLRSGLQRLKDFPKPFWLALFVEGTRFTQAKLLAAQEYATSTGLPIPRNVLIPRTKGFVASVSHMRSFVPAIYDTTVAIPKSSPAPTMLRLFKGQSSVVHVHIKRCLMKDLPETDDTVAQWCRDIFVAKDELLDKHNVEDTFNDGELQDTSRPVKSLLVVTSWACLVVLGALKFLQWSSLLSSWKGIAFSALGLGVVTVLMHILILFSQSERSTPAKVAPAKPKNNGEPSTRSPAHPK

**Q.** `CCCCCCCC/C=C\CCCCCCCC(=O)SCCNC(=O)CCNC(=O)[C@H](O)C(C)(C)COP(=O)(O)OP(=O)(O)OC[C@H]1O[C@@H](n2cnc3c(N)ncnc32)[C@H](O)[C@@H]1OP(=O)(O)O` [C18:1-CoA, Oleoyl-CoA] was tested. Which Km did it give?
**A.** 7.3 ± 4.1 µM

**Q.** And the Vmax (apparent Vmax, per mg total protein)?
**A.** 1557 ± 616 pmol · mg prot^−1 · min^−1
